Laboratory results reported in patent US8575201B2 (Boehringer Ingelheim International GmbH, priority 2010, dated 2013).

Key:
[1] = biological target: recombinant human FLAP protein (Homo sapiens (Human), UniProt P20292); experiment: FLAP binding assay (Scintillation Proximity Assay, displacement of [125I]L-691,831); conditions: read-out: FLAP SPA IC50
In short: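 Scintillation proximity displacement of an iodinated (125I) FLAP inhibitor by test compounds, using 100,000×g membrane fraction from lysed cells. Final beads 200 μg/well and protein 5 μg/well; plates shaken 2 h before reading.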

[2] = test system: synthesis of LTB4 in human whole blood; experiment: Human whole blood LTB4 production inhibition assay; type: cell-based; conditions: calcimycin stimulated, read-out: hWB LTB4 IC50
In short: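 LTB4 in plasma was quantified by HTRF immunoassay. Before that, compound-treated heparinized whole blood (15 min, 37 °C) received 20 μM final calcimycin for a further 30 min at 37 °C, followed by centrifugation at 1500×g.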

Chain of recombinant human FLAP protein (P20292 whole entry): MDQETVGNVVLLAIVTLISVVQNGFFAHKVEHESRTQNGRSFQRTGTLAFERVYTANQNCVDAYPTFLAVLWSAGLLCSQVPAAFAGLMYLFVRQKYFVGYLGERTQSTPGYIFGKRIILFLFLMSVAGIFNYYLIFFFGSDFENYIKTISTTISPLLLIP

| Structure (SMILES) | IC50 [1] [µM] | IC50 [2] [µM] |
| --- | --- | --- |
| Cn1cc(-c2nc(C3(c4ccc(-c5cnc(N)nc5)cn4)CCC3)no2)cn1 [Example 134, 5-(6-{1-[5-(1-methyl-1H-pyrazol-4-yl)-1,2,4-oxadiazol-3-yl]cyclobutyl}pyridin-3-yl)pyrimidin-2-amine] | 0.081 | 0.79 |
| Cc1cc(-c2nc(C3(c4ccc(-c5cnc(N)nc5)cn4)CCOCC3)no2)n(C)n1 [Example 136, 5-(6-{4-[5-(1,3-dimethyl-1H-pyrazol-5-yl)-1,2,4-oxadiazol-3-yl]tetrahydro-2H-pyran-4-yl}pyridin-3-yl)pyrimidin-2-amine] | 0.54 | > 5 |
| Nc1ncc(-c2ccc(C3(c4noc(-c5cccnc5)n4)CCOCC3)nc2)cn1 [Example 137, 5-(6-{4-[5-(pyridin-3-yl)-1,2,4-oxadiazol-3-yl]tetrahydro-2H-pyran-4-yl}pyridin-3-yl)pyrimidin-2-amine] | 0.58 | 3 |
| Nc1ncc(-c2ccc(C3(c4noc(-c5ccncc5)n4)CCOCC3)nc2)cn1 [Example 138, 5-(6-{4-[5-(pyridin-4-yl)-1,2,4-oxadiazol-3-yl]tetrahydro-2H-pyran-4-yl}pyridin-3-yl)pyrimidin-2-amine] | 0.97 | > 5 |
| Nc1ncc(-c2ccc(C3(c4noc(-c5cnn(CCN6CCOCC6)c5)n4)CCC3)cn2)cn1 [Example 140, 5-{5-[1-(5-{1-[2-(morpholin-4-yl)ethyl]-1H-pyrazol-4-yl}-1,2,4-oxadiazol-3-yl)cyclobutyl]pyridin-2-yl}pyrimidin-2-amine] | 0.015 | 0.11 |
| CN(C)CCn1cc(-c2nc(C3(c4ccc(-c5cnc(N)nc5)nc4)CCC3)no2)cn1 [Example 142, 5-{5-[1-(5-{1-[2-(dimethylamino)ethyl]-1H-pyrazol-4-yl}-1,2,4-oxadiazol-3-yl)cyclobutyl]pyridin-2-yl}pyrimidin-2-amine] | 0.016 | 0.25 |
| CN(C(=O)Cn1cc(-c2nc(C3(c4ccc(-c5cnc(N)nc5)nc4)CCC3)no2)cn1)C(C)(C)C [Example 143, 2-[4-(3-{1-[6-(2-aminopyrimidin-5-yl)pyridin-3-yl]cyclobutyl}-1,2,4-oxadiazol-5-yl)-1H-pyrazol-1-yl]-N-tert-butyl-N-methylacetamide] | 0.014 | 0.26 |
| CC(C)(Cn1cc(-c2nc(C3(c4ccc(-c5cnc(N)nc5)nc4)CCC3)no2)cn1)C(N)=O [Example 147, 3-[4-(3-{1-[6-(2-amino-pyrimidin-5-yl)-pyridin-3-yl]-cyclobutyl}-[1,2,4]oxadiazol-5-yl)-pyrazol-1-yl]-2,2-dimethyl-propionamide] | 0.065 | 0.34 |
| CC(C)(C#N)Cn1cc(-c2nc(C3(c4ccc(-c5cnc(N)nc5)nc4)CCC3)no2)cn1 [Example 148, 3-[4-(3-{1-[6-(2-amino-pyrimidin-5-yl)-pyridin-3-yl]-cyclobutyl}-[1,2,4]oxadiazol-5-yl)-pyrazol-1-yl]-2,2-dimethyl-propionitrile] | 0.025 | 0.2 |
| CC(C)(C(N)=O)n1cc(-c2nc(C3(c4ccc(-c5cnc(N)nc5)nc4)CCC3)no2)cn1 [Example 149, 2-[4-(3-{1-[6-(2-amino-pyrimidin-5-yl)-pyridin-3-yl]-cyclobutyl}-[1,2,4]oxadiazol-5-yl)-pyrazol-1-yl]-isobutyramide] | 0.16 | 0.43 |
| CC(C)(O)Cn1cc(-c2nc(C3(c4ccc(-c5ccc(N)nc5)nc4)CCC3)no2)cn1 [Example 153, 1-(4-{3-[1-(6′-amino-[2,3′]bipyridinyl-5-yl)-cyclobutyl]-[1,2,4]oxadiazol-5-yl}-pyrazol-1-yl)-2-methyl-propan-2-ol] | 0.034 | 0.19 |
| Nc1ncc(-c2ccc(C3(c4noc(N5CCC(O)CC5)n4)CCC3)cn2)cn1 [Example 154, 1-(3-{1-[6-(2-Amino-pyrimidin-5-yl)-pyridin-3-yl]-cyclobutyl}-[1,2,4]oxadiazol-5-yl)-piperidin-4-ol] | 0.17 | 0.59 |
| Nc1ncc(-c2ccc(C3(c4noc(-c5cnn(CC(=O)NCC6CCCO6)c5)n4)CCC3)cn2)cn1 (centres unmarked) [Example 156, 2-[4-(3-{1-[6-(2-amino-pyrimidin-5-yl)-pyridin-3-yl]-cyclobutyl}-[1,2,4]oxadiazol-5-yl)-pyrazol-1-yl]-N-(tetrahydro-furan-2-ylmethyl)-acetamide] | 0.097 | 0.62 |
| CC(C)NC(=O)Cn1cc(-c2nc(C3(c4ccc(-c5cnc(N)nc5)nc4)CCC3)no2)cn1 [Example 157, 2-[4-(3-{1-[6-(2-amino-pyrimidin-5-yl)-pyridin-3-yl]-cyclobutyl}-[1,2,4]oxadiazol-5-yl)-pyrazol-1-yl]-N-isopropyl-acetamide] | 0.079 | 0.56 |

The remaining lines, values ahead:

| IC50 [1] [µM] | IC50 [2] [µM] | Structure (SMILES) |
| --- | --- | --- |
| 0.028 | 0.34 | Nc1ncc(-c2ccc(C3(c4noc(-c5cnn(C6CCS(=O)(=O)C6)c5)n4)CCC3)cn2)cn1 (centres unmarked) [Example 139, 5-[5-(1-{5-[1-(1,1-dioxidotetrahydrothiophen-3-yl)-1H-pyrazol-4-yl]-1,2,4-oxadiazol-3-yl}cyclobutyl)pyridin-2-yl]pyrimidin-2-amine] |
| 0.011 | 0.085 | N#CCn1cc(-c2nc(C3(c4ccc(-c5cnc(N)nc5)nc4)CCC3)no2)cn1 [Example 141, [4-(3-{1-[6-(2-aminopyrimidin-5-yl)pyridin-3-yl]cyclobutyl}-1,2,4-oxadiazol-5-yl)-1H-pyrazol-1-yl]acetonitrile] |
| 0.0083 | 0.029 | Nc1cnc(-c2ccc(C3(c4noc(-c5cnn(C6COC6)c5)n4)CCC3)cn2)cn1 [Example 145] |
| 0.015 | 0.043 | CC(C)(O)Cn1cc(-c2nc(C3(c4ccc(-c5cnc(N)cn5)nc4)CCC3)no2)cn1 [Example 146, 1-[4-(3-{1-[6-(5-amino-pyrazin-2-yl)-pyridin-3-yl]-cyclobutyl}-[1,2,4]oxadiazol-5-yl)-pyrazol-1-yl]-2-methyl-propan-2-ol] |
| 0.068 | 0.37 | CC(C)(N)Cn1cc(-c2nc(C3(c4ccc(-c5cnc(N)nc5)nc4)CCC3)no2)cn1 [Example 150, 5-[5-(1-{5-[1-(2-amino-2-methyl-propyl)-1H-pyrazol-4-yl]-[1,2,4]oxadiazol-3-yl}-cyclobutyl)-pyridin-2-yl]-pyrimidin-2-ylamine] |
| 0.018 | 0.094 | CC(C)(C#N)n1cc(-c2nc(C3(c4ccc(-c5cnc(N)nc5)nc4)CCC3)no2)cn1 [Example 151, 2-[4-(3-{1-[6-(2-amino-pyrimidin-5-yl)-pyridin-3-yl]-cyclobutyl}-[1,2,4]oxadiazol-5-yl)-pyrazol-1-yl]-2-methyl-propionitrile] |
| 0.013 | 0.1 | Nc1ccc(-c2ccc(C3(c4noc(-c5cnn(C6COC6)c5)n4)CCC3)cn2)cn1 [Example 152, 5-{1-[5-(1-oxetan-3-yl-1H-pyrazol-4-yl)-[1,2,4]oxadiazol-3-yl]-cyclobutyl}-[2,3′]bipyridinyl-6′-ylamine] |
| 0.063 | 0.55 | Nc1ncc(-c2ccc(C3(c4noc(-c5cnn(CC(=O)NC6CC6)c5)n4)CCC3)cn2)cn1 [Example 155, 2-[4-(3-{1-[6-(2-Amino-pyrimidin-5-yl)-pyridin-3-yl]-cyclobutyl}-[1,2,4]oxadiazol-5-yl)-pyrazol-1-yl]-N-cyclopropyl-acetamide] |
